Data as given in the NIST ThermoML archive (doi:10.1021/je049919e).

Key:
[1] = Ring tensiometer
[2] = xn = mol fraction of the nth substance listed; details: Ring tensiometer

OCCO [1,2-ethanediol]
[1]
Details	surface tension liquid-gas [mN/m]
293.15 K	48.55
298.15 K	48.11
303.15 K	47.58
308.15 K	47.14
313.15 K	46.79
318.15 K	46.29
323.15 K	45.99

OCCO [1,2-ethanediol] + CC1CCC(O)CC1
[2], x2 = 0
Details	surface tension liquid-gas [mN/m]
293.15 K	48.55
298.15 K	48.11
303.15 K	47.58
308.15 K	47.14
313.15 K	46.79
318.15 K	46.29
323.15 K	45.99

OCCO [1,2-ethanediol] + CC1CCCC(O)C1
[2], x2 = 0
Details	surface tension liquid-gas [mN/m]
293.15 K	48.55
298.15 K	48.11
303.15 K	47.58
308.15 K	47.14
313.15 K	46.79
318.15 K	46.29
323.15 K	45.99

OCCO [1,2-ethanediol] + CC1CCCCC1O
[2], x2 = 0
Details	surface tension liquid-gas [mN/m]
293.15 K	48.55
298.15 K	48.11
303.15 K	47.58
308.15 K	47.14
313.15 K	46.79
318.15 K	46.29
323.15 K	45.99

CC1CCCCC1O (stereo not given) [2-methylcyclohexanol]
[1]
Details	surface tension liquid-gas [mN/m]
293.15 K	31.01
298.15 K	30.57
303.15 K	30.19
308.15 K	29.81
313.15 K	29.37
318.15 K	28.98
323.15 K	28.57

CC1CCCCC1O (stereo not given) [2-methylcyclohexanol] + OCCO
surface tension liquid-gas [mN/m], [2]
Details	293.15 K	298.15 K	303.15 K	308.15 K	313.15 K	318.15 K	323.15 K
x1 = 0.04	40.61	40.3	39.94	39.67	39.4	39.13	38.89
x1 = 0.105	36.13	35.89	35.62	35.32	35.07	34.81	34.56
x1 = 0.2	34.46	34.17	33.85	33.55	33.26	32.98	32.68
x1 = 0.307	33.49	33.2	32.88	32.58	32.22	31.94	31.63
x1 = 0.399	32.94	32.61	32.26	31.96	31.62	31.31	30.97
x1 = 0.514	32.38	32.03	31.68	31.33	30.98	30.69	30.36
x1 = 0.553	32.22	31.87	31.54	31.19	30.81	30.49	30.13
x1 = 0.76	31.72	31.36	30.97	30.61	30.29	29.91	29.52
x1 = 0.791	31.51	31.1	30.73	30.38	30	29.59	29.24
x1 = 0.892	31.2	30.78	30.39	30.05	29.67	29.27	28.87
x1 = 1	31.01	30.57	30.19	29.81	29.37	28.98	28.57

CC1CCCC(O)C1 (stereo not drawn) [3-methyl-1-cyclohexanol, (cis+trans)]
[1]
Details	surface tension liquid-gas [mN/m]
293.15 K	27.82
298.15 K	27.48
303.15 K	27.12
308.15 K	26.76
313.15 K	26.4
318.15 K	26.06
323.15 K	25.7

CC1CCCC(O)C1 (stereo not drawn) [3-methyl-1-cyclohexanol, (cis+trans)] + OCCO
surface tension liquid-gas [mN/m], [2]
Details	293.15 K	298.15 K	303.15 K	308.15 K	313.15 K	318.15 K	323.15 K
x1 = 0.05	36.72	36.51	36.29	36.07	35.88	35.66	35.44
x1 = 0.097	34.08	33.87	33.67	33.46	33.26	33.08	32.89
x1 = 0.258	31.57	31.25	30.97	30.7	30.42	30.15	29.91
x1 = 0.329	30.94	30.6	30.32	30.01	29.75	29.48	29.17
x1 = 0.389	30.57	30.23	29.98	29.65	29.38	29.09	28.76
x1 = 0.535	29.84	29.51	29.19	28.86	28.57	28.28	27.96
x1 = 0.623	29.39	29.05	28.75	28.43	28.14	27.82	27.42
x1 = 0.768	28.85	28.47	28.16	27.8	27.46	27.18	26.84
x1 = 0.864	28.43	28.02	27.68	27.34	27.03	26.69	26.33
x1 = 0.899	28.24	27.9	27.56	27.24	26.85	26.5	26.18
x1 = 1	27.82	27.48	27.12	26.76	26.4	26.06	25.7

CC1CCC(O)CC1 (stereo not given) [4-methylcyclohexanol]
[1]
Details	surface tension liquid-gas [mN/m]
293.15 K	27.63
298.15 K	27.3
303.15 K	26.98
308.15 K	26.61
313.15 K	26.31
318.15 K	25.96
323.15 K	25.63

CC1CCC(O)CC1 (stereo not given) [4-methylcyclohexanol] + OCCO
surface tension liquid-gas [mN/m], [2]
Details	293.15 K	298.15 K	303.15 K	308.15 K	313.15 K	318.15 K	323.15 K
x1 = 0.05	38.1	37.85	37.64	37.39	37.15	36.9	36.69
x1 = 0.097	34.38	34.18	33.98	33.78	33.6	33.4	33.21
x1 = 0.258	32.47	32.24	32.03	31.79	31.57	31.34	31.1
x1 = 0.329	31.48	31.24	30.99	30.74	30.48	30.26	30.01
x1 = 0.389	30.64	30.37	30.08	29.81	29.55	29.32	29.04
x1 = 0.535	30.35	30.05	29.77	29.48	29.23	28.96	28.68
x1 = 0.623	29.63	29.34	29.02	28.74	28.48	28.18	27.88
x1 = 0.768	29.21	28.92	28.6	28.29	28.02	27.73	27.4
x1 = 0.864	28.71	28.41	28.07	27.76	27.47	27.18	26.84
x1 = 0.899	28.07	27.75	27.43	27.11	26.77	26.45	26.15
x1 = 1	27.63	27.3	26.98	26.61	26.31	25.96	25.63
